Test results taken from US20260285850A1, “SUBSTITUTED OXAZOLIDINONES AND IMIDAZOLINONES AS HERBICIDES” (FMC CORPORATION, priority 2023, published 2026).

How the values were obtained:
Assay type in all cases: in vivo
[1] = system: ryegrass, Italian (italian ryegrass, Lolium multiflorum); assay: Test A preemergence soil spray, visual injury rating 0-100; settings: 10 days, 0 = no effect, 100 = complete control
In short: (§1)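 Greenhouse test: loam/sand pots received a surfactant-containing formulation, as a preemergence directed soil spray or a postemergence spray on young plants. Injury was judged visually at day 10 relative to untreated controls.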

kochia (Bassia scoparia) [2] = assay: as above; settings: 10 days, 0 = no effect, 100 = complete control
In short: as §1

[3] = system: oat, wild (wild oat, Avena fatua); assay: as above; settings: 10 days, 0 = no effect, 100 = complete control
In short: as §1

corn (Zea mays) [4] = assay: as above; settings: 10 days, 0 = no effect, 100 = complete control
In short: as §1

[5] = system: ragweed (common ragweed, Ambrosia artemisiifolia); assay: as above; settings: 10 days, 0 = no effect, 100 = complete control
In short: as §1

soybean (Glycine max) [6] = assay: as above; settings: 10 days, 0 = no effect, 100 = complete control
In short: as §1

[7] = system: blackgrass (Alopecurus myosuroides); assay: as above; settings: 10 days, 0 = no effect, 100 = complete control
In short: as §1

[8] = system: green foxtail (Setaria viridis); assay: as above; settings: 10 days, 0 = no effect, 100 = complete control
In short: as §1

[9] = system: palmer (palmer amaranth, palmer pigweed, Amaranthus palmeri); assay: as above; settings: 10 days, 0 = no effect, 100 = complete control
In short: as §1

[10] = system: barnyardgrass (Echinochloa crus-galli); assay: as above; settings: 10 days, 0 = no effect, 100 = complete control
In short: as §1

[11] = system: wheat (Triticum aestivum); assay: as above; settings: 10 days, 0 = no effect, 100 = complete control
In short: as §1

[12] = system: ryegrass, Italian (italian ryegrass, Lolium multiflorum); assay: Test A postemergence application, visual injury rating 0-100; settings: 10 days
In short: as §1

kochia (Bassia scoparia) [13] = assay: as above; settings: 10 days
In short: as §1

[14] = system: oat, wild (wild oat, Avena fatua); assay: as above; settings: 10 days
In short: as §1

[15] = system: galium (catchweed bedstraw, Galium aparine); assay: as above; settings: 10 days
In short: as §1

corn (Zea mays) [16] = assay: as above; settings: 10 days
In short: as §1

[17] = system: ragweed (common ragweed, Ambrosia artemisiifolia); assay: as above; settings: 10 days
In short: as §1

soybean (Glycine max) [18] = assay: as above; settings: 10 days
In short: as §1

[19] = system: blackgrass (Alopecurus myosuroides); assay: as above; settings: 10 days
In short: as §1

[20] = system: horseweed (Erigeron canadensis); assay: as above; settings: 10 days
In short: as §1

[21] = system: green foxtail (Setaria viridis); assay: as above; settings: 10 days
In short: as §1

[22] = system: palmer (palmer amaranth, palmer pigweed, Amaranthus palmeri); assay: as above; settings: 10 days
In short: as §1

[23] = system: barnyardgrass (Echinochloa crus-galli); assay: as above; settings: 10 days
In short: as §1

[24] = system: wheat (Triticum aestivum); assay: as above; settings: 10 days
In short: as §1

rice (Oryza sativa) = assay: Test B flooded paddy test, visual plant response rating 0-100; settings: 250 g ai/ha, Flood, applied to paddy water, evaluated after 13 days
In short: (§2)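 Compounds applied to standing paddy water (3 cm above soil, maintained for the test duration) on 2-leaf-stage plants; visual rating vs controls at 13 days, greenhouse.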

[25] = system: sedge, umbrella (small-flower umbrella sedge, Cyperus difformis); assay: as above; settings: 250 g ai/ha, Flood, applied to paddy water, evaluated after 13 days
In short: as §2

[26] = system: barnyardgrass (Echinochloa crusgalli); assay: as above; settings: 250 g ai/ha, Flood, applied to paddy water, evaluated after 13 days
In short: as §2

[27] = system: ducksalad (Heteranthera limosa); assay: as above; settings: 250 g ai/ha, Flood, applied to paddy water, evaluated after 13 days
In short: as §2

[28] = 31 g ai/ha, postemergence, 0 = no effect, 100 = complete control
[29] = Postemergence, 125 g ai/ha, 0 is no effect, 100 is complete control

CCOC(=O)COC(=O)C1C=CC(NC(=O)C2(C)CN(c3cc(F)cc(F)c3)C(=O)O2)C1 (stereo not shown) [Compound 53]
0: Kochia plant response rating (0-100) (kochia (Bassia scoparia) [2]; 31 g ai/ha) | Corn plant response rating (0-100) (corn (Zea mays) [4]; 31 g ai/ha) | Ragweed plant response rating (0-100) ([5]; 31 g ai/ha) | Foxtail, Green plant response rating (0-100) ([8]; 31 g ai/ha)
80: Kochia plant response rating (0-100) (kochia (Bassia scoparia) [13]; [28]) | Kochia plant response rating (0 to 100 scale) (kochia (Bassia scoparia) [13]; [29]) | Galium plant response rating (0-100) [15, 28] | Galium plant response rating (0 to 100 scale) [15, 29] | Ragweed plant response rating (0 to 100 scale) [17, 29] | Blackgrass plant response rating (0 to 100 scale) [19, 29]
60: Corn plant response rating (0 to 100 scale) (corn (Zea mays) [4]; 125 g ai/ha) | Amaranth, Palmer plant response rating (0 to 100 scale) ([9]; 125 g ai/ha) | Horseweed plant response rating (0-100) [20, 28] | Plant response rating, Sedge, Umbrella (0 to 100 scale, 0 is no effect and 100 is complete control) [25]
50: Oat, Wild plant response rating (0-100) ([3]; 31 g ai/ha) | Blackgrass plant response rating (0-100) ([7]; 31 g ai/ha) | Ragweed plant response rating (0-100) [17, 28] | Foxtail, Green plant response rating (0-100) [21, 28]
90: Kochia plant response rating (0 to 100 scale) (kochia (Bassia scoparia) [2]; 125 g ai/ha) | Oat, Wild plant response rating (0 to 100 scale) ([3]; 125 g ai/ha) | Blackgrass plant response rating (0 to 100 scale) ([7]; 125 g ai/ha) | Wheat plant response rating (0 to 100 scale) ([11]; 125 g ai/ha) | Ryegrass, Italian plant response rating (0-100) [12, 28] | Ryegrass, Italian plant response rating (0 to 100 scale) [12, 29] | Oat, Wild plant response rating (0-100) [14, 28] | Oat, Wild plant response rating (0 to 100 scale) [14, 29] | Amaranth, Palmer / Pigweed, Palmer plant response rating (0 to 100 scale) [22, 29] | Wheat plant response rating (0-100) [24, 28] | Wheat plant response rating (0 to 100 scale) [24, 29] | Plant response rating, Barnyardgrass (0 to 100 scale, 0 is no effect and 100 is complete control) [26] | Plant response rating, Ducksalad (0 to 100 scale, 0 is no effect and 100 is complete control) [27]
100: Ryegrass, Italian plant response rating (0 to 100 scale) ([1]; 125 g ai/ha) | Barnyardgrass plant response rating (0 to 100 scale) ([10]; 125 g ai/ha) | Corn plant response rating (0-100) (corn (Zea mays) [16]; [28]) | Corn plant response rating (0 to 100 scale) (corn (Zea mays) [16]; [29]) | Barnyardgrass plant response rating (0-100) [23, 28] | Barnyardgrass plant response rating (0 to 100 scale) [23, 29]
20: Ragweed plant response rating (0 to 100 scale) ([5]; 125 g ai/ha) | Foxtail, Green plant response rating (0 to 100 scale) ([8]; 125 g ai/ha) | Plant response rating, Rice (0 to 100 scale, 0 is no effect and 100 is complete control) (rice (Oryza sativa))
70: Ryegrass, Italian plant response rating (0-100) ([1]; 31 g ai/ha) | Soybean plant response rating (0 to 100 scale) (soybean (Glycine max) [6]; 125 g ai/ha) | Wheat plant response rating (0-100) ([11]; 31 g ai/ha) | Soybean plant response rating (0-100) (soybean (Glycine max) [18]; [28]) | Soybean plant response rating (0 to 100 scale) (soybean (Glycine max) [18]; [29]) | Blackgrass plant response rating (0-100) [19, 28] | Horseweed plant response rating (0 to 100 scale) [20, 29] | Foxtail, Green plant response rating (0 to 100 scale) [21, 29] | Amaranth, Palmer plant response rating (0-100) [22, 28]
30: Soybean plant response rating (0-100) (soybean (Glycine max) [6]; 31 g ai/ha) | Amaranth, Palmer plant response rating (0-100) ([9]; 31 g ai/ha) | Barnyardgrass plant response rating (0-100) ([10]; 31 g ai/ha)
